Source: patent US10227347B2, “Purinyl-N-hydroxyl pyrimidine formamide derivative, preparation methods and uses thereof” (Guizhou Bailing Group Pharmaceutical CO., LTD., priority 2015, dated 2019)
pEC50, pIC50: −log10 of the molar value. Where two headings read alike, the source gives them in different places.

How the values were obtained:
[1] = tested on: MV4-11 subcutaneous tumor; details: 50 mg/kg i.p., once per two days, 22 days
Text: During drug administration, measuring the weight and gross tumor volume of the mice per 2 days and keeping a record. The calculation formula is as V=π/6×A^2×B, where, where, V=gross tumor volume (mm^3), A=tumor width (mm) and B=tumor length (mm). Observing and keeping a record for the survival condition of the tested animals. After drug discontinuance, killing the mice through cervical dislocation and peeling off their tumors as per the operation specification of animal experiment. Evaluating the inhibition capability of the compounds to tumor activities by calculating the tumor inhibitory rate with the formula as: tumor inhibitory rate=(1−tumor weight of treatment group/tumor weight of control group)×100%. Analyzing and comparing the difference between each treatment group and control group with the method of t-test. The grading of significance level of difference is: ***, P<0.001; **, P<0.01; *, P<0.05; no statistical significance (ns), P>0.05.

[2] = tested on: human colon cancer hct116 subcutaneous tumor; assay: Subcutaneous tumor model, human colon cancer hct116; details: 50 mg/kg, once per 2 days, intraperitoneal
mTOR = molecular target: T1, mTOR (Homo sapiens, UniProt P42345); assay: mTOR activity inhibition (ULight-4E-BP1 peptide); assay type: biochemical; details: Table 1, graded
T1 construct: purchased Millipore 14-770
Protocol: mTOR protein is purchased from Millipore Company (Catalog No.: 14-770). The reaction buffer system comprises 50 mM HEPES, 10 mM MgCl2, 1 mM EGTA, 3 mM […], 0.01% Tween-20 (purchased from Chengdu Kelong Chemical Regent Factory) and 2 mM DTT. The pH value of the reaction buffer is 7.5. Preparing 10 μL reaction system in corresponding wells of the 384 well plate, which contains the compositions as: the compound with designed concentration (or blank control), mTOR protein (with the concentration of 2.5 nM), ULight-4E-BP1 (containing the 37th and the 46th threonine residues, Thr37/46) peptide (purchased from PE Company, Catalog No.: TRF0128-M) and ATP substrates (ULight-4E-BP1 peptide, with the concentration of 50 nM and ATP, with the concentration of […]). Mixing it evenly for incubation under ambient temperature for 1 h; adding 10 μL testing liquid containing EDTA (ethylenediaminetetraacetic acid) and Eu-anti-phosphorylation-4E-BP1 (Thr37/46) antibody (purchased from PE Company, Catalog No.: TRF0216-M) into the reaction wells (after the testing liquid is added, the concentration of EDTA is 8 mM and the concentration of Eu-phosphorylation-4E-BP1 antibody is 2 nM); mixing it evenly and incubating it for 1 h under ambient temperature, then measuring the fluorescence intensity with a microplate reader and analyzing the result data with the software GraphPad Prism.
(§1) Calculating the value of IC50 as per the formula: Y=background data+(top data−background data)/(1+10^((Log IC50−X)*rate of curve))
(§2) Where, Y refers to the inhibition ratio (%) and X refers to the compound concentration.

PI3Kδ = molecular target: T2, PI3Kδ (Homo sapiens, UniProt O00329); assay: PI3Kδ activity inhibition (Kinase-Glo); assay type: biochemical; details: Table 1, graded
T2 construct: purchased Millipore 14-604-K
Protocol: Detecting the inhibition capability of the compound to PI3Kα and PI3Kδ activities with Kinase-Glo (purchased from Promege Company; Catalog No.: V3771). […] The reaction system also comprises substrates as PIP2 (4, 5-diphosphoinositide, purchased from Life Technologies Company) and ATP (triphosadenine, purchased from Sigma Company). The reaction buffer system comprises 50 mM HEPES (4-hydroxyethylpiperazine ethane sulfonic acid), 3 mM MgCl2, 1 mM EGTA (ethylene glycol bis(2-amino ethylether)quadrol), 100 mM NaCl, 0.03% CHAPS (3-[3-(cholamidopropyl)dimethylamino]-1-propanesulfonic acid), 2 mM DTT (dithiothreitol). The pH value of the reaction buffer is 7.5. […] Mixing the system evenly for incubation under ambient temperature (for 1 h in PI3Kα test and for 2 h in PI3Kδ test). After incubation, adding 10 μL Kinase-Glo which has been preheated to ambient temperature into each reaction well to terminate the reaction; shaking it in dark place for 15 min after it is mixed evenly, then measuring the fluorescence intensity with a microplate reader and analyzing the result data with the software GraphPad Prism.
as §1, §2

[3] = tested on: hct116 cells (colon cancer); assay: Cell proliferation inhibition, hct116 (MTT); assay type: cell-based; details: Homo sapiens, HCT-116
Method in brief: (§3)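 Cells seeded at 2000-3000/well; adherent lines dosed after attachment, then 96 h incubation with compound. Viability read by MTT for solid-tumour lines (HCT116, A2780s) and CCK-8 for MV4-11; IC50 from four-parameter logistic fit of inhibition ratio versus concentration.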

[4] = tested on: MV4-11 cells (acute myeloid leukemia); assay: Cell proliferation inhibition, MV4-11 (cck-8); assay type: cell-based; details: Homo sapiens
Method in brief: as §3

PI3Kβ = molecular target: T3, PI3Kβ (Homo sapiens, UniProt P42338); assay: PI3Kβ activity inhibition (ADP-Glo); assay type: biochemical; details: Table 1, graded
T3 construct: purchased Millipore 14-603-K
Protocol: (§4) Detecting the inhibition capability of the compound to PI3Kβ and PI3Kγ activities with ADP-Glo (purchased from Promege Company; Catalog No.: v9102/3). […] The reaction system also comprises substrates as PIP2 and ATP. The reaction buffer system comprises 50 mM HEPES, 3 mM MgCl2, 1 mM EGTA, 100 mM NaCl, 0.03% CHAPS and 2 mM DTT. The pH value of the reaction buffer is 7.5. […] Mixing the system evenly for incubation under ambient temperature for 1 h; getting a new 384 well plate and transferring 5 μL reaction liquid from the each well of original 384 well plate to the corresponding wells of the new 384 well plate; adding 5 μL ADP-Glo which has been preheated to ambient temperature into each new reaction well to terminate the reaction; oscillating it slowly in dark place for 40 min's incubation after it is mixed evenly; adding 10 μL testing liquid in each reaction well, oscillating it for 1 min to mix evenly and incubating it for 1 h, then measuring the fluorescence intensity with a microplate reader and analyzing the result data with the software GraphPad Prism.
as §1, §2

PI3Kα = molecular target: T4, PI3Kα (Homo sapiens, UniProt P42336); assay: PI3Kα activity inhibition (Kinase-Glo); assay type: biochemical
T4 construct: purchased Invitrogen PV4788
Method in brief: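 Kinase-Glo luminescence read-out of remaining ATP after PI3K reaction with PIP2 and ATP substrates in 50 mM HEPES pH 7.5, 3 mM MgCl2, 1 mM EGTA, 100 mM NaCl, 0.03% CHAPS, 2 mM DTT. Incubated at ambient temperature, 1 h for PI3Kα, 2 h for PI3Kδ. IC50 from four-parameter fit of % inhibition versus concentration.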

HDAC1 = molecular target: T5, HDAC1 (Homo sapiens, UniProt Q13547); assay: In vitro HDAC1 enzymatic activity inhibition (Lys-Ac-AMC substrate); assay type: biochemical
T5 construct: purchased BPS Bioscience
Method in brief: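 Fluorogenic Lys-Ac-AMC deacetylation with trypsin development in modified Tris buffer pH 7.0; compound preincubated with enzyme 15 min at ambient temperature before substrate addition. Final HDAC1 6 nM, trypsin 0.05 μM, Ac-peptide 8 μM. IC50 from four-parameter fit of % inhibition versus concentration.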

[5] = tested on: A2780s cells (ovarian cancer); assay: Cell proliferation inhibition, A2780s (MTT); assay type: cell-based; details: Homo sapiens
Method in brief: as §3

PI3Kγ = molecular target: T6, PI3Kγ (Homo sapiens, UniProt P48736); assay: PI3Kγ activity inhibition (ADP-Glo); assay type: biochemical; details: Table 1, graded
T6 construct: purchased Invitrogen PR8641C
Protocol: as §4, §1, §2

[6] = tested on: acetylated histone H3 (Ac-H3) in A2780s cells; assay: Induction of histone H3 acetylation in A2780s cells (cytoblot); assay type: cell-based; details: Homo sapiens, 6 h treatment
Protocol: (§5) Specific operation: After the treatment, washing each well once with 50-100 μl of cold TBS buffer [with the composition as 20 mM Tris (trismetyl aminomethane), pH7.5] and fixing it with 100 μL of 4% pre-cooled paraformaldehyde at 4° C. for 1 h; after paraformaldehyde is washed off, adding 50 μL of pre-cooled methyl alcohol in each well and evenly spreading at 4° C. for 5 min; after methyl alcohol is washed off, washing it once with the TBS buffer containing 3% skim milk powder and adding 50 μL of antibody fluid, oscillating it slightly at 4° C. and incubating overnight. For determination of Ac—H3, the antibody fluid is prepared by diluting Ac—H3 antibody and horseradish peroxide coupled secondary antibody to a same system with the TBS buffer containing 3% skim milk powder (Ac—H3 antibody is purchased from Santa Cruz Company and diluted at a ratio of 1:100; horseradish peroxide coupled secondary antibody is purchased from Jackson Company and diluted at a ratio of 1:2000); for determination of acetylated Ac-α-tubulin, the antibody fluid is prepared by diluting Ac-α-tubulin antibody and horseradish peroxide coupled secondary antibody to a same system with the TBS buffer containing 3% skim milk powder (Ac-α-tubulin antibody is purchased from Santa Cruz Company and diluted at a ratio of 1:100; horseradish peroxide coupled secondary antibody is purchased from Jackson Company and diluted at a ratio of 1:2000).
(§6) Calculating the value of IC50 as per the formula: Y=background data+(top data−background data)/(1+10^((Log EC50−X)*rate of curve)) Where, Y refers to the activating rate (%) and X refers to the compound concentration.

[7] = tested on: acetylated Ac-α-tubulin in A2780s cells; assay: Induction of α-tubulin acetylation in A2780s cells (cytoblot); assay type: cell-based; details: Homo sapiens, 6 h treatment, read-out: Ac-Tub EC50
Protocol: as §5, §6

[8] = 96 h incubation, read-out: Proliferation IC50, Colon cancer hct116
[9] = read-out: IC50 to proliferation of hct116 cells
[10] = 96 h incubation, read-out: Proliferation IC50, Acute myeloid leukemia MV4-11
[11] = read-out: IC50 to proliferation of MV4-11 cells
[12] = Table 1, graded, read-out: PI3Kα IC50
[13] = read-out: inhibition value IC50 to the activity of PI3Kα
[14] = Table 1, graded, read-out: HDAC1 IC50
[15] = 96 h incubation, read-out: Proliferation IC50, Ovarian cancer A2780s
[16] = read-out: IC50 to proliferation of A2780s cells
[17] = read-out: inhibition value IC50 to the activity of HDAC1

T2 sequence (O00329 whole entry): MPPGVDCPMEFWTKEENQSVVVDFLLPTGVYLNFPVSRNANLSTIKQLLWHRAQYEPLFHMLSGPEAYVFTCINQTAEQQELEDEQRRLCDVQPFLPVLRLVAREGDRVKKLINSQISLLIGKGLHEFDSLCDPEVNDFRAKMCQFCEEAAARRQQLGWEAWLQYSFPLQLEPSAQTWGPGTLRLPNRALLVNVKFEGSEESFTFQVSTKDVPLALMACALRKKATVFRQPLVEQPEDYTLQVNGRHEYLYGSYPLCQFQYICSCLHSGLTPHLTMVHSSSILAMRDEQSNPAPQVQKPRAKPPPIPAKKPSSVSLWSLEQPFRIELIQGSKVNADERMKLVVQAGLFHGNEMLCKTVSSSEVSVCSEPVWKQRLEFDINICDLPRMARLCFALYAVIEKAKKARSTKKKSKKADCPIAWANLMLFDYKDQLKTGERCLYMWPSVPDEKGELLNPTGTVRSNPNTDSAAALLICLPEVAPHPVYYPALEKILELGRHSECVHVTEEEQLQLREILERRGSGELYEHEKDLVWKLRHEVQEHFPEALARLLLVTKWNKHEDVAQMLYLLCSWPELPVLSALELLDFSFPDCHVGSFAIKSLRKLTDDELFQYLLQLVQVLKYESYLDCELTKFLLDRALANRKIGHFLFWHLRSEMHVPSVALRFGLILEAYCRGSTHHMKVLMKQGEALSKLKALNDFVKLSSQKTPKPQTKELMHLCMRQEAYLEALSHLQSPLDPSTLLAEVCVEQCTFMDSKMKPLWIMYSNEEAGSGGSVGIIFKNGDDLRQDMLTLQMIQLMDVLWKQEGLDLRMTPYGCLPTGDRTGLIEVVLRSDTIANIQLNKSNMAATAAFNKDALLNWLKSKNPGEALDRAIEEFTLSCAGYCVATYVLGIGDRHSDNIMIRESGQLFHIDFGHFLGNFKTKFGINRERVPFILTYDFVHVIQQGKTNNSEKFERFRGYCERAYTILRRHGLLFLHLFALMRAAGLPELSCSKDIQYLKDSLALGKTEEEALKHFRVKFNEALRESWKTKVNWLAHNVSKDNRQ
T2 sequence (P27986 whole entry partner): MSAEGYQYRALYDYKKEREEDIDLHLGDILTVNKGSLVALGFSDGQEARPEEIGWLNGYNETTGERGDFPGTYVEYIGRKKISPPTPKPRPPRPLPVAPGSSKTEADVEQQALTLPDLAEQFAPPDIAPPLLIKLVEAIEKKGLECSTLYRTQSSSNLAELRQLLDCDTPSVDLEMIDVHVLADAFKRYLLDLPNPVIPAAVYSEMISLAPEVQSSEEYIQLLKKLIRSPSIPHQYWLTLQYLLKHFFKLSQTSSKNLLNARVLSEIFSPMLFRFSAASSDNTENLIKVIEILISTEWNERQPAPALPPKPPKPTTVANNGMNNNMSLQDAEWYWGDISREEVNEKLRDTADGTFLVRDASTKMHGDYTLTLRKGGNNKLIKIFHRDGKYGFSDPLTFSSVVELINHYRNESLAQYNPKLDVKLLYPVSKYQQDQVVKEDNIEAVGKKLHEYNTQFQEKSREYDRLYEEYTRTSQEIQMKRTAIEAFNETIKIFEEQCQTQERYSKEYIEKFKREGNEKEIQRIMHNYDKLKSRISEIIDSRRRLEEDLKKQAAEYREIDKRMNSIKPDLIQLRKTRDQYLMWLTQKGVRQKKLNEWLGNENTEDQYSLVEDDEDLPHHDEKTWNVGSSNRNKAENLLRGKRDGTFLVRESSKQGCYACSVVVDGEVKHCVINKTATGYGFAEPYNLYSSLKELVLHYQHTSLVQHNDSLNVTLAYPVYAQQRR
T6 sequence (P48736 whole entry): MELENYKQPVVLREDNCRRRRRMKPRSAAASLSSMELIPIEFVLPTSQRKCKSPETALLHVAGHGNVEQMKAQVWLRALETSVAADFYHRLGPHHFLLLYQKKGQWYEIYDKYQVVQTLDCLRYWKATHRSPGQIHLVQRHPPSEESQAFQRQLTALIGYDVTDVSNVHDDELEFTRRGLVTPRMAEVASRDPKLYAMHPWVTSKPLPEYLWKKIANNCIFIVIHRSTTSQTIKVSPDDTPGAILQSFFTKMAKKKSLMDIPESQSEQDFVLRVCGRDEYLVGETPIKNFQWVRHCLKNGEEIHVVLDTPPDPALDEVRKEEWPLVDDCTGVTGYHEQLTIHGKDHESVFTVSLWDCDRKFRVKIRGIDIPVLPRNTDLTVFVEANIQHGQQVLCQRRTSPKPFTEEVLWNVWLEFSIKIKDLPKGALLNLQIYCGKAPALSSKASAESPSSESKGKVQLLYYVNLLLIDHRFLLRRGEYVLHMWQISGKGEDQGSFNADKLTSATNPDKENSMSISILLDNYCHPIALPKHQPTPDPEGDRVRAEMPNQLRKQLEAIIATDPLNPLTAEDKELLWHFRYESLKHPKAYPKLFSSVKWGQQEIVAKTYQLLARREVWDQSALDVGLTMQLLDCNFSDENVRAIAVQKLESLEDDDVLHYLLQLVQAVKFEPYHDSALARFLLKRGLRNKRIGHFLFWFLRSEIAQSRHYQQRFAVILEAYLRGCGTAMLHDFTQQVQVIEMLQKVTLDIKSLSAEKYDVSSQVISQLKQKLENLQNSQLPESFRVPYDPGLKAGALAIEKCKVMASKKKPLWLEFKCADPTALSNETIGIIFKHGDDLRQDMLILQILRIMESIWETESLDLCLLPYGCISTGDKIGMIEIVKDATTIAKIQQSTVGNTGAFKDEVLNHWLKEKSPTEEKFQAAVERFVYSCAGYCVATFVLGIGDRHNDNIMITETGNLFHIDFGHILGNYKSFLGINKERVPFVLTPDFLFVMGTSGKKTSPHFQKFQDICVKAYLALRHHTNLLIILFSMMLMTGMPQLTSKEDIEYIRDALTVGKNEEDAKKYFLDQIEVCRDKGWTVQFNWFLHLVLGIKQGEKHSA
T4 sequence (P42336 whole entry, species assumed): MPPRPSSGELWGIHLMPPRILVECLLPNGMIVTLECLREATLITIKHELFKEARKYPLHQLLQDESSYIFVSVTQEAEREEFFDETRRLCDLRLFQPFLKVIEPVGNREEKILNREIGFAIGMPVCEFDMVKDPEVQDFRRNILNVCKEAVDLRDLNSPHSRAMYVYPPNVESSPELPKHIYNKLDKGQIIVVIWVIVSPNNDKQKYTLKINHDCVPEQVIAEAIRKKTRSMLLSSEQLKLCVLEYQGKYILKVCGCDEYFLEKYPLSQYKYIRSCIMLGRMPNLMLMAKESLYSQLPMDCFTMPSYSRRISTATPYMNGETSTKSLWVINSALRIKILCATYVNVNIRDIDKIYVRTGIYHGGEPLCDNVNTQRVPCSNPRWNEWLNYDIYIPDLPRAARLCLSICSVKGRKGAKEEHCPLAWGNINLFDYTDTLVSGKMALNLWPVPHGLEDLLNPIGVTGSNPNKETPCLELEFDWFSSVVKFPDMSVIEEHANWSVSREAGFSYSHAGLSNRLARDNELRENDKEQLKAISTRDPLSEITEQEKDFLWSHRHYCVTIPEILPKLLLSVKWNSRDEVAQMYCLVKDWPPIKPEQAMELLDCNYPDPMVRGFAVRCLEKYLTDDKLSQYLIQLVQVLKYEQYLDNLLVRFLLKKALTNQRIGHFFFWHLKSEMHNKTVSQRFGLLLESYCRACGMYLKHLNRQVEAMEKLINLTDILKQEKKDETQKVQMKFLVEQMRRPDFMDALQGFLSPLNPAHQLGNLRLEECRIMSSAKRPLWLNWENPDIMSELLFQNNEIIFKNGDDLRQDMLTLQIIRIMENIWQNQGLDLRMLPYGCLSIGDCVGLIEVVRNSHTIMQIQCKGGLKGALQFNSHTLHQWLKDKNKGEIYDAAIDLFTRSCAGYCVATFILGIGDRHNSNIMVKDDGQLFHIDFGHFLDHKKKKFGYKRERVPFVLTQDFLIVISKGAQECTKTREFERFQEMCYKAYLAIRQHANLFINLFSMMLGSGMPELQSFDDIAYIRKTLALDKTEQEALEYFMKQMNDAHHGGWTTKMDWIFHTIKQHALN
T4 sequence (P27986 whole entry partner, species assumed): as the sequence (P27986 whole entry partner) above
T3 sequence (P42338 whole entry, species assumed): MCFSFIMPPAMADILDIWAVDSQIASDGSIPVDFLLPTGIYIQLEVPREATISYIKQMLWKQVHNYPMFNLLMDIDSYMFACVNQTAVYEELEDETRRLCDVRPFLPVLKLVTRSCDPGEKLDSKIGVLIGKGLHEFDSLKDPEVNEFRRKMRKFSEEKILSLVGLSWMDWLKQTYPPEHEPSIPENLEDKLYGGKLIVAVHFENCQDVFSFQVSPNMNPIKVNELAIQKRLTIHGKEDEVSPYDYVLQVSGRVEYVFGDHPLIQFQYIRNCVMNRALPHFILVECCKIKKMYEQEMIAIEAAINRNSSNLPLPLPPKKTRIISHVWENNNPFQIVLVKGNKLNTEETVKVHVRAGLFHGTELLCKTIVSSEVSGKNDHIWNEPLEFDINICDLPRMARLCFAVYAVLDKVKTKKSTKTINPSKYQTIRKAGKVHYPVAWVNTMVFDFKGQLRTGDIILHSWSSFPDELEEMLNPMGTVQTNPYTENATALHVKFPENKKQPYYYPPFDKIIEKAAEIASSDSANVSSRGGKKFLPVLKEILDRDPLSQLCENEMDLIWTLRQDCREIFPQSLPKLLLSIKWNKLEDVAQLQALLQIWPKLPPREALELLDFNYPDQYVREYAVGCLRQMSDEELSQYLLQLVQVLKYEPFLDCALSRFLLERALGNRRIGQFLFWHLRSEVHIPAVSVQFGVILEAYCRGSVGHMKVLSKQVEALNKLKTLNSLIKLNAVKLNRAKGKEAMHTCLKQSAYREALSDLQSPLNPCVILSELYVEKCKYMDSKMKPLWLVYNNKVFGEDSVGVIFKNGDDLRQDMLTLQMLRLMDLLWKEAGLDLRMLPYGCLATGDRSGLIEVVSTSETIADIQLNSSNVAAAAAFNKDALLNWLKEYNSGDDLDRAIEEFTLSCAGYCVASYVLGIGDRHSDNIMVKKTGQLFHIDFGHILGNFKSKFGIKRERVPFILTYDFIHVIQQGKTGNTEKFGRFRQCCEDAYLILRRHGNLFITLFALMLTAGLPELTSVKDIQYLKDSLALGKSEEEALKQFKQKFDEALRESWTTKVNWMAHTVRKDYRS
T3 sequence (P27986 whole entry partner, species assumed): as the sequence (P27986 whole entry partner) above

Structure (SMILES)	Final survival condition (survived individuals/total individuals) [1]	Death [2]	pIC50 (mTOR)	pIC50 (PI3Kδ)	pIC50 [3, 8]	pIC50 [3, 9]	pIC50 [4, 10]	pIC50 [4, 11]	pIC50 (PI3Kβ)	pIC50 (PI3Kα; [12])	pIC50 (PI3Kα; [13])	pIC50 (HDAC1; [14])	pIC50 [5, 15]	pIC50 [5, 16]	pIC50 (PI3Kγ)	pIC50 (HDAC1; [17])	pEC50 [6]	pEC50 [7]
O=C(CCCCCCC(=O)Nc1ccccc1)NO [SAHA, vorinostat, reference compound]	6/6	0/6																
CNc1ncc(-c2nc(N3CCOCC3)c3nc(CN(C)c4ncc(C(=O)NO)cn4)n(C)c3n2)cn1 [CLJ-12, 2-(((2-(4-aminemethylpyrimidine)-9-methyl-6-morpholine-9H-purine-8-yl))methyl(methyl)amino)-N-hydroxyl pyrimidine-5-formamide]			6.00 to 7.00	6.00 to 7.00	8.00 to 10.00	8.00 to 10.00	8.00 to 10.00	8.00 to 10.00	6.00 to 7.00	> 7.00	> 7.00	> 7.00	8.00 to 10.00	8.00 to 10.00	6.00 to 7.00			
CN(Cc1nc2c(N3CCOCC3)nc(-c3ccc4[nH]ncc4c3)nc2n1C)c1ncc(C(=O)NO)cn1 [CLJ-15, 2-(((2-(1H-indazole-5-yl)-9-methyl-6-morpholine-9H-purine-8-yl))methyl(methyl)amino)-N-hydroxyl pyrimidine-5-formamide]			< 5.00	< 5.00	7.00 to 8.00		7.00 to 8.00		< 5.00	5.00 to 6.00		> 9.00	7.00 to 8.00		< 5.00	> 9.00		
CN(Cc1nc2c(N3CCOCC3)nc(-c3cnc4ccccc4c3)nc2n1C)c1ncc(C(=O)NO)cn1 [CLJ-14, 2-(((2-(quinoline-3-yl)-9-methyl-6-morpholine-9H-purine-8-yl))methyl(methyl)amino)-N-hydroxyl pyrimidine-5-formamide]			< 5.00	< 5.00	7.00 to 8.00		8.00 to 10.00		< 5.00	< 5.00		> 7.00	8.00 to 10.00		< 5.00			
Cc1ncc(-c2nc(N3CCOCC3)c3nc(CN(C)c4ncc(C(=O)NO)cn4)n(C)c3n2)cn1 [CLJ-13]			6.00 to 7.00	6.00 to 7.00	8.00 to 10.00	8.00 to 10.00	8.00 to 10.00	8.00 to 10.00	6.00 to 7.00	> 7.00	> 7.00	> 7.00	8.00 to 10.00	8.00 to 10.00	6.00 to 7.00			
COc1ccc(-c2nc(N3CCOCC3)c3sc(CN(C)c4ncc(C(=O)NO)cn4)cc3n2)cn1 [CUDC907, reference compound]			5.00 to 6.00														6.70 to 7.00	< 6.70
CCN(Cc1nc2c(N3CCOCC3)nc(-c3ccc(OC)nc3)nc2n1C)c1ncc(C(=O)NO)cn1 [CLJ-5, N-hydroxy-2-(((2-(6-methoxyl-3-pyridyl)-9-methyl-6-morpholine-9H-purine-8-yl))methyl(ethyl)amino)pyrimidine-5-formamide]			6.00 to 7.00	6.00 to 7.00	6.00 to 7.00		6.00 to 7.00		6.00 to 7.00	> 7.00	> 7.00	6.00 to 7.00	6.00 to 7.00		6.00 to 7.00	> 7.00		
